One assay concerns Mtb-infected mouse lungs. The assay is described as follows: Genome-wide lung transcriptome (microarray, IPA network/GO analysis) of Mtb-infected mice. Type of assay: in vivo. The settings on record: TNF-a regulon network.
Another assay relates to Pde4. Description: qPCR of host Pde4 gene expression in Mtb-infected mouse lungs. The format is in vivo, mice. The following applies: 14 days of treatment (28 days postinfection). The protocol:
Total lung RNA (200 ng) was reverse-transcribed using Sprint RT kit (Clontech, CA, USA); 10 ng of cDNA were used for quantitative real-time PCR (qPCR), with Brilliant II SYBR master mix (Agilent Technologies, CA, USA) and gene-specific primers in a Stratagene Mx3005P instrument (Agilent Technologies, CA, USA). ROX was included in each reaction as an internal control. The qPCR assay was performed using four mouse samples in duplicate per group; the data were analyzed using MxPro Software (Agilent Technologies, CA, USA). Transcript levels of Gapdh were used as a reference against the test genes. Fold change in gene expression was calculated using the formula 2^−ΔΔCt, where ΔCt is the difference in threshold cycle (Ct) between the target gene and Gapdh; and ΔΔCt is the […] between untreated and CC-11050-treated samples. Primers were designed based on nucleotide sequences obtained from PrimerBank.^3

Compound `CCOc1cc([C@@H](CS(C)(=O)=O)N2Cc3cccc(NC(=O)C4CC4)c3C2=O)ccc1OC` [CC-11050, N-[2-[(1S)-1-(3-ethoxy-4-methoxyphenyl)-2-(methylsulfonyl)ethyl]-2,3-dihydro-3-oxo-1H-isoindol-4-yl]-(9Cl) cyclopropanecarboxamide] displayed an Ins1 expression in the assay on Mtb-infected mouse lungs of 0. In the assay on Pde4, the “Pde4Bv3 (Pde4B variant 3) expression in lungs versus Mtb-infected untreated” value is “No significant change”.

For the origin of these results see article PMC4911353, “Pharmacologic Inhibition of Host Phosphodiesterase-4 Improves Isoniazid-Mediated Clearance of Mycobacterium tuberculosis” (Frontiers in Immunology, 2016).
